Measurements reported in patent publication US9579319B2 (Redx Pharma PLC, priority 2013, dated 2017).
pIC50: −log10 of the molar value.

Each compound was assayed against Hedgehog signalling pathway (assay: Gli-reporter NIH3T3 luciferase assay (Hedgehog pathway inhibition)). Conditions: Gli-reporter NIH-3T3 cells, recombinant mouse sonic hedgehog, 24 hours, luminescence; read-out: Gli luc IC50.
Type: cell-based
Description: In vitro biological evaluation of compounds of the invention was carried out using the procedure detailed below. The procedure provides activity data for the compounds of the invention against the Hedgehog signalling pathway. The activity is represented as IC50 values in Table 12 below.
The Gli-reporter NIH3T3 cell line (BPS Biosciences) was grown according to the suppliers recommendations. Briefly, cells were maintained in growth medium (DMEM supplemented with 10% calf serum, 1% Penicillin/Streptomycin, and 500 µg/mL of Geneticin) and grown at 37° C., 5% CO2. In order to passage cells they were first rinsed with phosphate buffered saline before the addition of 0.05% Trypsin/EDTA. Fresh growth media was added and the cells were transferred to a centrifuge tube, spun and resuspended at an appropriate cell density.
Gli-reporter NIH-3T3 cells were seeded at 20,000 cells/well into 96 well, poly-D-lysine coated white clear bottomed full area TC plates in growth media (without geneticin). Three wells were left with just media as cell free controls. Cells were then incubated for 24 hours at 37° C. in a 5% CO2.
Serial dilutions of the test compounds were prepared in 100% DMSO. 10 μl of compound or DMSO from each well was pipetted into a sterile, 0.5 ml deep well conical bottomed 96 well plate (intermediate plate). 190 μl of warmed assay media (Opti-MEM supplemented with 0.5% calf serum, 1% non-essential amino acids, 1 mM sodium pyruvate, 10 mM HEPES, 1% penicillin/Streptomycin) was then added to each well and mixed five times at 180 μl by electronic pipette to ensure homogeneity of the compound solution. This 1:20 dilution gives a top concentration of 50 μM in 5% DMSO, 95% assay media. 10 μl was pipetted from each well of the intermediate plate into a second deep well sterile plate. 490 μl of warm assay media was then added to each well and mixed five times at 300 μl. This gives a final top concentration of 1 μM in 0.1% DMSO.
After the 24 hour incubation, media was carefully removed by pipette and replaced with 45 μl of compound dilutions in triplicate. This was incubated for one hour at 37° C. in a 5% CO2. After an hour, 5 μl 10 μg/mL recombinant mouse sonic hedgehog (R&D Systems) was added to each well and the plates were incubated for a further 24 hours at 37° C., 5% CO2.
After 24 hours, plates were removed from the incubator and left to acclimatise to room temperature for 20 minutes. 50 μl of OneGLO assay reagent (Promega) was then added to each well and the plates gently shaken for a further 30 minutes. Plates were then read for luminescence on the EnVision plate reader (PerkinElmer).
Work on “1-[4,5-dimethyl-6-(2-methylpyrazol-yl)pyridazin-3-yl]-N-methyl-N-[[2-(trifluoromethoxy)phenyl]methyl]piperidin-4-amine [Example 89]” yielded a pIC50 of under 6.70.

Same assay, conditions: NIH3T3; Gli-reporter NIH-3T3 cells, recombinant mouse sonic hedgehog, 24 hours, luminescence; read-out: Category (Hedgehog pathway inhibition activity, IC50)
In the case of Cn1nccc1-c1nnc(N2CCC(NCc3ccccc3[N+](=O)[O-])CC2)c2ccccc12 [Example 31, 1-[4-(2-methylpyrazol-3-yl)phthalazin-1-yl]-N-[(2-nitrophenyl)methyl]piperidin-4-amine], the pIC50 was 6.70 to 8.00. Compound Cc1c(-c2ccnn2C)nnc(N2CCC(N(C)Cc3ccc(F)cc3C(F)(F)F)CC2)c1C [Example 41, 1-[4,5-dimethyl-6-(2-methylpyrazol-3-yl)pyridazin-3-yl]-N-[[4-fluoro-2-(trifluoromethyl)phenyl]methyl]-N-methyl-piperidin-4-amine] has a pIC50 of 6.70 to 8.00. With Cn1nccc1-c1nnc(N2CCC(NCc3ccc(Cl)nc3C(F)(F)F)CC2)c2ccccc12 [Example 44, N-[[6-chloro-2-(trifluoromethyl)-3-pyridyl]methyl]-1-[4-(2-methylpyrazol-3-yl)phthalazin-1-yl]piperidin-4-amine] the pIC50 was over 8.00. Work on Cn1nccc1-c1nnc(N2CCC(NCc3ccncc3C(F)(F)F)CC2)c2ccccc12 [Example 51, 1-[4-(2-methylpyrazol-3-yl)phthalazin-1-yl]-N-[[3-(trifluoromethyl)-4-pyridyl]methyl]piperidin-4-amine] yielded a pIC50 of 6.70 to 8.00. For Cn1nccc1-c1nnc(N2CCC(NCc3cccc(C(F)(F)F)c3)CC2)c2ccccc12 [Example 39, 1-[4-(2-methylpyrazol-3-yl)phthalazin-1-yl]-N-[[3-(trifluoromethyl)phenyl]methyl]piperidin-4-amine], the pIC50 was 6.70 to 8.00. COc1ccccc1NC(=O)NC1CCN(c2nnc(-c3ccnn3C)c3ccccc23)CC1 [Example 15, 1-(2-methoxyphenyl)-3-[1-[4-(2-methylpyrazol-3-yl)phthalazin-1-yl]-4-piperidyl]urea] gave a pIC50 of over 8.00. Compound CN(Cc1ccc(F)cc1F)C1CCN(c2nnc(-c3ccnn3C)c3ccccc23)CC1 [Example 67, N-[(2,4-difluorophenyl)methyl]-N-methyl-1-[4-(2-methylpyrazol-3-yl)phthalazin-1-yl]piperidin-4-amine] has a pIC50 of 6.70 to 8.00. With CN(Cc1ccc(F)cc1C(F)(F)F)C1CCN(c2nnc(-c3ccnn3C)c3ccccc23)C1 (centres unmarked) [Example 55, N-[[4-fluoro-2-(trifluoromethyl)phenyl]methyl]-N-methyl-1-[4-(2-methylpyrazol-3-yl)phthalazin-1-yl]pyrrolidin-3-amine] the pIC50 was 6.70 to 8.00. Compound Cn1nccc1-c1nnc(N2CCC(N(Cc3ccc(F)cc3C(F)(F)F)C(=O)C(F)(F)F)CC2)c2ccccc12 [Example 56, 2,2,2-trifluoro-N-[[4-fluoro-2-(trifluoromethyl)phenyl]methyl]-N-[1-[4-(2-methylpyrazol-3-yl)phthalazin-1-yl]-4-piperidyl]acetamide] has a pIC50 of 6.70 to 8.00. In the case of Cn1nccc1-c1nnc(N2CCC(NC(=O)Nc3ccccc3OC(F)(F)F)CC2)c2ccccc12 [Example 25, 1-[1-[4-(2-methylpyrazol-3-yl)phthalazin-1-yl]-4-piperidyl]-3-[2-(trifluoromethoxy)phenyl]urea], the pIC50 was over 8.00. In the case of Cn1nccc1-c1nnc(N2CCC(Nc3ccc(F)cc3C(F)(F)F)CC2)c2ccccc12 [Example 53, N-[4-fluoro-2-(trifluoromethyl)phenyl]-1-[4-(2-methylpyrazol-3-yl)phthalazin-1-yl]piperidin-4-amine], the pIC50 was over 8.00.

Same assay, conditions: NIH3T3; Gli-reporter NIH-3T3 cells, recombinant mouse sonic hedgehog, 24 hours, luminescence; read-out: Gli luc IC50
Cn1nccc1-c1nnc(N2CCC(Nc3ccc(F)cc3C(F)(F)F)CC2)c2c1CCC2 [Example 142, N-[4-fluoro-2-(trifluoromethyl)phenyl]-1-[1-(2-methylpyrazol-3-yl)-6,7-dihydro-5H-cyclopenta[d]pyridazin-4-yl]piperidin-4-amine] showed a pIC50 of 6.70 to 8.00. With COc1ccc(-c2nnc(N3CCC(NS(=O)(=O)c4ccc(F)cc4C(F)(F)F)CC3)c(C)c2C)cn1 [Example 117, 4-fluoro-N-[1-[6-(6-methoxy-3-pyridyl)-4,5-dimethyl-pyridazin-3-yl]-4-piperidyl]-2-(trifluoromethyl)benzenesulfonamide] the pIC50 was 6.70 to 8.00. O=C(Nc1ccc(F)cc1C(F)(F)F)NC1CCN(c2nnc(-c3ccncc3)c3ccncc23)CC1 [Example 99, 1-[4-fluoro-2-(trifluoromethyl)phenyl]-3-[1-[1-(4-pyridyl)pyrido[3,4-d]pyridazin-4-yl]-4-piperidyl]urea] gave a pIC50 of over 8.00. In the case of Cn1nccc1-c1nnc(N2CCC(NCc3ccc(F)cc3C(F)(F)F)CC2)c2ncccc12 [Example 146, N-[[4-fluoro-2-(trifluoromethyl)phenyl]methyl]-1-[5-(2-methylpyrazol-3-yl)pyrido[2,3-d]pyridazin-8-yl]piperidin-4-amine], the pIC50 was under 6.70. In the case of Cc1c(-c2ccnn2C)nnc(N2CCC(N(C)C(=O)NC(C)(C)C)CC2)c1C [Example 152, 3-tert-butyl-1-[1-[4,5-dimethyl-6-(2-methylpyrazol-3-yl)pyridazin-3-yl]-4-piperidyl]-1-methyl-urea], the pIC50 was under 6.70. Work on CN(Cc1ccncn1)C1CCN(c2nnc(-c3ccnn3C)c3ccccc23)CC1 [Example 86, N-methyl-1-[4-(2-methylpyrazol-3-yl)phthalazin-1-yl]-N-(pyrimidin-4-ylmethyl)piperidin-4-amine] yielded a pIC50 of under 6.70. Cc1c(-c2ccnn2C)nnc(N2CCC(N(C)Cc3ccccc3C#N)CC2)c1C [Example 87, 2-[[[1-[4,5-dimethyl-6-(2-methylpyrazol-3-yl)pyridazin-3-yl]-4-piperidyl]-methyl-amino]methyl]benzonitrile] gave a pIC50 of 6.70 to 8.00. In the case of CN(C(=O)Nc1ccc(F)cc1F)C1CCN(c2nnc(-c3ccnn3C)c3cccnc23)CC1 [Example 136, 3-(2,4-difluorophenyl)-1-methyl-1-[1-[5-(2-methylpyrazol-3-yl)pyrido[2,3-d]pyridazin-8-yl]-4-piperidyl]urea], the pIC50 was 6.70 to 8.00. For CN(C(=O)NC(C)(C)C)C1CCN(c2nnc(-c3ccnn3C)c3ncccc23)CC1 [Example 129, 3-tert-butyl-1-methyl-1-[1-[8-(2-methylpyrazol-3-yl)pyrido[2,3-d]pyridazin-5-yl]-4-piperidyl]urea], the pIC50 was under 6.70. CN(Cc1ccc(F)cc1C(F)(F)F)C1CCN(c2nnc(-c3cnccn3)c3ccccc23)CC1 [Example 153, N-[[4-fluoro-2-(trifluoromethyl)phenyl]methyl]-N-methyl-1-(4-pyrazin-2-ylphthalazin-1-yl)piperidin-4-amine] showed a pIC50 of under 6.70. For CN(Cc1ccccc1OC(F)(F)F)C1CCN(c2nnc(-c3ccnn3C)c3ccccc23)CC1 [Example 162, N-methyl-1-[4-(2-methylpyrazol-3-yl)phthalazin-1-yl]-N-[[2-(trifluoromethoxy)phenyl]methyl]piperidin-4-amine], the pIC50 was over 8.00. Work on Cc1c(-c2ccnn2C)nnc(N2CCC(N(C)Cc3ccccc3C(F)(F)F)CC2)c1C [Example 84, 1-[4,5-dimethyl-6-(2-methylpyrazol-3-yl)pyridazin-3-yl]-N-methyl-N-[[2-(trifluoromethyl)phenyl]methyl]piperidin-4-amine] yielded a pIC50 of 6.70 to 8.00. For Cn1nccc1-c1nnc(N2CCC(NCc3cccnc3C(F)(F)F)CC2)c2ccccc12 [Example 155, 1-[4-(2-methylpyrazol-3-yl)phthalazin-1-yl]-N-[[2-(trifluoromethyl)-3-pyridyl]methyl]piperidin-4-amine], the pIC50 was over 8.00. CN(C(=O)Nc1ccc(F)cc1F)C1CCN(c2nnc(-c3ccnn3C)c3ccccc23)CC1 [Example 169, 3-(2,4-difluorophenyl)-1-methyl-1-[1-[4-(2-methylpyrazol-3-yl)phthalazin-1-yl]-4-piperidyl]urea] was tested, and the pIC50 was over 8.00. In the case of COc1cc(-c2nnc(N3CCC(NCc4ccc(F)cc4C(F)(F)F)CC3)c(C)c2C)ccn1 [Example 121, N-[[4-fluoro-2-(trifluoromethyl)phenyl]methyl]-1-[6-(2-methoxy-4-pyridyl)-4,5-dimethyl-pyridazin-3-yl]piperidin-4-amine], the pIC50 was under 6.70. CN(C(=O)Nc1ccc(F)cc1F)C1CCN(c2nnc(-c3ccnn3C)c3ncccc23)CC1 [Example 101, 3-(2,4-difluorophenyl)-1-methyl-1-[1-[8-(2-methylpyrazol-3-yl)pyrido[2,3-d]pyridazin-5-yl]-4-piperidyl]urea] showed a pIC50 of under 6.70. In the case of COC(=O)c1ccc(CNC2CCN(c3nnc(-c4ccnn4C)c4ccccc34)CC2)nc1 [Example 166, methyl 6-[[[1-[4-(2-methylpyrazol-3-yl)phthalazin-1-yl]-4-piperidyl]amino]methyl]pyridine-3-carboxylate], the pIC50 was under 6.70.
